The test system of this series is CCRIS mutagenicity, Ames/micronucleus/aberration tests. Nature of the series: CCRIS mutagenicity studies.

Active and inactive are the calls of the source. No rule for the calls is given here.

Consider `CC[C@H](C)[C@@H]1NC(=O)[C@H](CCCNC(=N)N)NC(=O)[C@H](CC(=O)O)NC(=O)[C@H](CCSC)NC(=O)[C@H](CCCNC(=N)N)NC(=O)CNC(=O)CNC(=O)[C@H](Cc2ccccc2)NC(=O)[C@@H](NC(=O)[C@H](CO)NC(=O)[C@H](CO)NC(=O)[C@H](CCCNC(=N)N)NC(=O)[C@H](CCCNC(=N)N)NC(=O)[C@H](CC(C)C)NC(=O)[C@@H](N)CO)CSSC[C@@H](C(=O)N[C@@H](CC(N)=O)C(=O)N[C@@H](CO)C(=O)N[C@@H](Cc2ccccc2)C(=O)N[C@@H](CCCNC(=N)N)C(=O)N[C@@H](Cc2ccc(O)cc2)C(=O)O)NC(=O)CNC(=O)[C@H](CC(C)C)NC(=O)CNC(=O)[C@H](CO)NC(=O)[C@H](CCC(N)=O)NC(=O)[C@H](C)NC(=O)CNC1=O`, for which the mutagenic call (Test System: AMES SALMONELLA TYPHIMURIUM, Strain/Indicator: TA98, Metabolic Activation: NONE, Method: PREINCUBATION) was “inactive; negative”; the mutagenic call (Test System: AMES SALMONELLA TYPHIMURIUM, Strain/Indicator: TA98, Metabolic Activation: S-9, Method: PREINCUBATION) was “inactive; negative”; the mutagenic call (Test System: AMES SALMONELLA TYPHIMURIUM, Strain/Indicator: TA100, Metabolic Activation: NONE, Method: PREINCUBATION) was “inactive; negative”; the mutagenic call (Test System: AMES SALMONELLA TYPHIMURIUM, Strain/Indicator: TA100, Metabolic Activation: S-9, Method: PREINCUBATION) is “inactive; negative”; the mutagenic call (Test System: AMES SALMONELLA TYPHIMURIUM, Strain/Indicator: TA1535, Metabolic Activation: NONE, Method: PREINCUBATION) is “inactive; negative”; the mutagenic call (Test System: AMES SALMONELLA TYPHIMURIUM, Strain/Indicator: TA1535, Metabolic Activation: S-9, Method: PREINCUBATION) is “inactive; negative”. The mutagenic call runs as follows: (Test System: AMES SALMONELLA TYPHIMURIUM, Strain/Indicator: TA1537, Metabolic Activation: NONE, Method: PREINCUBATION) “inactive; negative”; (Test System: AMES SALMONELLA TYPHIMURIUM, Strain/Indicator: TA1537, Metabolic Activation: S-9, Method: PREINCUBATION) “inactive; negative”; (Test System: E. COLI, Strain/Indicator: WP2 UVRA, Metabolic Activation: NONE, Method: PREINCUBATION) “inactive; negative”; (Test System: E. COLI, Strain/Indicator: WP2 UVRA, Metabolic Activation: S-9, Method: PREINCUBATION) “inactive; negative”.

Consider `CC1(C)C(C=C(Cl)Cl)C1C(=O)OCc1cccc(Oc2ccccc2)c1` (configuration not stated), for which the mutagenic call (Test System: AMES SALMONELLA TYPHIMURIUM, Strain/Indicator: TA97A, Metabolic Activation: NONE, Method: STANDARD PLATE) is “inactive; negative”; the mutagenic call (Test System: AMES SALMONELLA TYPHIMURIUM, Strain/Indicator: TA97A, Metabolic Activation: RAT, CECAL CELL FREE EXTRACT, Method: STANDARD PLATE) was “inactive; negative”; the mutagenic call (Test System: AMES SALMONELLA TYPHIMURIUM, Strain/Indicator: TA97A, Metabolic Activation: RAT, LIVER, S-9, AROCLOR 1254, Method: STANDARD PLATE) was “inactive; negative”; the mutagenic call (Test System: AMES SALMONELLA TYPHIMURIUM, Strain/Indicator: TA98, Metabolic Activation: NONE) is “active; positive”; the mutagenic call (Test System: AMES SALMONELLA TYPHIMURIUM, Strain/Indicator: TA98, Metabolic Activation: NONE, Method: MICROSUSPENSION) is “inactive; negative”; the mutagenic call (Test System: AMES SALMONELLA TYPHIMURIUM, Strain/Indicator: TA98, Metabolic Activation: NONE, Method: STANDARD PLATE) was “inactive; negative”. The mutagenic call by setting is: (Test System: AMES SALMONELLA TYPHIMURIUM, Strain/Indicator: TA98, Metabolic Activation: RAT, CECAL CELL FREE EXTRACT, Method: STANDARD PLATE) “inactive; negative”; (Test System: AMES SALMONELLA TYPHIMURIUM, Strain/Indicator: TA98, Metabolic Activation: RAT, LIVER, S-9, AROCLOR 1254, Method: STANDARD PLATE) “inactive; negative”; (Test System: AMES SALMONELLA TYPHIMURIUM, Strain/Indicator: TA98, Metabolic Activation: RAT, LIVER, S-9, POLYCHLORINATED BIPHENYLS) “inactive; negative”; (Test System: AMES SALMONELLA TYPHIMURIUM, Strain/Indicator: TA98, Metabolic Activation: S-9, Method: MICROSUSPENSION) “inactive; negative”; (Test System: AMES SALMONELLA TYPHIMURIUM, Strain/Indicator: TA100) “inactive; negative”; (Test System: AMES SALMONELLA TYPHIMURIUM, Strain/Indicator: TA100, Metabolic Activation: NONE) “inactive; negative”. Also, the mutagenic call by setting is: (Test System: AMES SALMONELLA TYPHIMURIUM, Strain/Indicator: TA100, Metabolic Activation: NONE, Method: MICROSUSPENSION) “inactive; negative”; (Test System: AMES SALMONELLA TYPHIMURIUM, Strain/Indicator: TA100, Metabolic Activation: NONE, Method: STANDARD PLATE) “inactive; negative”; (Test System: AMES SALMONELLA TYPHIMURIUM, Strain/Indicator: TA100, Metabolic Activation: RAT, CECAL CELL FREE EXTRACT, Method: STANDARD PLATE) “inactive; negative”; (Test System: AMES SALMONELLA TYPHIMURIUM, Strain/Indicator: TA100, Metabolic Activation: RAT, LIVER, S-9, AROCLOR 1254, Method: STANDARD PLATE) “inactive; negative”; (Test System: AMES SALMONELLA TYPHIMURIUM, Strain/Indicator: TA100, Metabolic Activation: S-9, Method: MICROSUSPENSION) “inactive; negative”; (Test System: AMES SALMONELLA TYPHIMURIUM, Strain/Indicator: TA1535, Metabolic Activation: NONE, Method: STANDARD PLATE) “inactive; negative”. Moreover, the mutagenic call was “inactive; negative” (Test System: AMES SALMONELLA TYPHIMURIUM, Strain/Indicator: TA1535, Metabolic Activation: RAT, LIVER, S-9, AROCLOR 1254, Method: STANDARD PLATE); “inactive; negative” (Test System: AMES SALMONELLA TYPHIMURIUM, Strain/Indicator: TA1537, Metabolic Activation: NONE, Method: STANDARD PLATE); “inactive; negative” (Test System: AMES SALMONELLA TYPHIMURIUM, Strain/Indicator: TA1537, Metabolic Activation: RAT, LIVER, S-9, AROCLOR 1254, Method: STANDARD PLATE); “inactive; negative” (Test System: CHINESE HAMSTER V-79, Strain/Indicator: V-79/6-THIOGUANINE, Metabolic Activation: NONE, Method: STANDARD PLATE); “inactive; negative” (Test System: CHINESE HAMSTER V-79, Strain/Indicator: V-79/6-THIOGUANINE, Metabolic Activation: RAT HEPATOCYTES, Method: STANDARD PLATE); “inactive; negative” (Test System: CHINESE HAMSTER V-79, Strain/Indicator: V-79/OUABAIN, Metabolic Activation: NONE, Method: STANDARD PLATE). The mutagenic call was “inactive; negative” (Test System: CHINESE HAMSTER V-79, Strain/Indicator: V-79/OUABAIN, Metabolic Activation: RAT HEPATOCYTES, Method: STANDARD PLATE); “inactive; negative” (Test System: E. COLI, Strain/Indicator: WP2, Metabolic Activation: NONE, Method: STANDARD PLATE); “inactive; negative” (Test System: E. COLI, Strain/Indicator: WP2, Metabolic Activation: RAT, LIVER, S-9, AROCLOR 1254, Method: STANDARD PLATE).

For the origin of these results see PubChem BioAssay AID1259407 (Chemical Carcinogenesis Research Information System (CCRIS), 2018).
